Laboratory results published in PMC12282258, “Understanding the substrate recognition and catalytic mechanism of 2-O-methyl fucosidases from glycoside hydrolase family 139” (The Journal of Biological Chemistry, 2025).

Target: T1, BT0984^GH139 (Bacteroides thetaiotaomicron, UniProt Q8A933)
T1 construct: gene BT_0984; full-length gene in pET28a (NheI/XhoI), N-terminal His6 tag, expressed in E. coli BL21(DE3) or TUNER; cobalt IMAC purified
T1 sequence (Q8A933 1-803): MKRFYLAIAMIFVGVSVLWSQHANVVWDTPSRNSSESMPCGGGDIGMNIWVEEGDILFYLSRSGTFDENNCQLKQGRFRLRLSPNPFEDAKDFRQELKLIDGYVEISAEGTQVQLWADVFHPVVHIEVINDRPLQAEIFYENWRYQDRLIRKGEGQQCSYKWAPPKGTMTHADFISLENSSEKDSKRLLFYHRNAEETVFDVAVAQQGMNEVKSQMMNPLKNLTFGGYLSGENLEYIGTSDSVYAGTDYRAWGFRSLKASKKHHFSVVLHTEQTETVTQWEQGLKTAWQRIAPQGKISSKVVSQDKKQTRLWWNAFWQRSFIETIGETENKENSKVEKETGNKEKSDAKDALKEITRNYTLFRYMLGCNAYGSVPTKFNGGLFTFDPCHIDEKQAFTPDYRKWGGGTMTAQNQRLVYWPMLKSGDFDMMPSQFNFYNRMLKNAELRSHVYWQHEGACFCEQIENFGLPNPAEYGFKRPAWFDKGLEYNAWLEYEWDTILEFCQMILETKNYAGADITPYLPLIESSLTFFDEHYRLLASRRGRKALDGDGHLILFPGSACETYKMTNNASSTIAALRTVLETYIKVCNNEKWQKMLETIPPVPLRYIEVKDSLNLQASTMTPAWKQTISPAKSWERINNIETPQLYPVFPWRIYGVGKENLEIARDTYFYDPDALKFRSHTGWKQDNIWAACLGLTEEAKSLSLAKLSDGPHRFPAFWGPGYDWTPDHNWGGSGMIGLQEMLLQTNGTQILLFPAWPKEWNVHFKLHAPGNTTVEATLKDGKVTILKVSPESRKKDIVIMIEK
Assay: thin layer chromatography
Format: biochemical
Details: 1 μM enzyme, 10 mM MOPS pH 7.0, 150 mM NaCl, 37 °C; slow

## CO[C@@H]1[C@H](Oc2ccc([N+](=O)[O-])cc2)O[C@@H](C)[C@@H](O)[C@H]1O [4NP-MeFuc, 4-nitrophenyl-2-O-methyl-α-L-fucopyranoside]
  thin layer chromatography: displayed activity on 4-nitrophenyl 2-O-methyl-α-L-fucoside (4NP-MeFuc)
